B1: HJURP shRNA: shRNA against HJURP (SEQ ID NO: 56 and 57) cloned into pSUPER.retro.puro retroviral vector (nucleic acid)
sense: GATCCCCGAGCGATTCATCTTCATCATTCAAGAGATGATGAAGATGAATCGCTCTTTTTGGAA
antisense: AGCTTTTCCAAAAAGAGCGATTCATCTTCATCATCTCTTGAATGATGAAGATGAATCGCTCGGG

What was measured:
Assay type in all cases: cell-based, human
[1] = system: panel of 53 breast cancer cell lines; assay: Cell viability/growth assay and dose response (GI50), CellTiter-Glo; conditions: for GI50 values in cell lines with a high MNAI as compared to a low MNAI: breast cancer cell lines, FIG. 6; for effectiveness by breast cancer subtype: panel of 50 breast cancer cell lines that included both basal and luminal cell lines
Description: Human non-malignant and breast cancer cell lines, established from normal and human breast cancer samples, are publicly available and were used in the development of the mitotic network. The source of these cells includes nearly 55 well-characterized breast cell lines with genomic information (i.e. gene copy numbers of various genes) and gene expression data such as gene signatures characteristic of each cell line. Information that directs optimal incubation conditions are detailed in The cell incubational condition of the cell lines was shown reference (Neve, R. M. et al. Cancer Cell 10, 515-527 (2006).
The inhibitor compounds used were small molecule inhibitors. Theses small-molecule inhibitors for PLK1 (GSK461364), CENPE (GSK923295) and AURKB (GSK1070916) were provided by GlaxoSmithKline Inc. Stock solutions were made at a concentration of 10 mM in DMSO and stored at −20° C. Compounds were diluted (1:5 serial dilution), ranging between 0.0768 nM to 30 μM.
The cell viability and growth assay and dose response (GI50) experiments were conducted following dose-response curves that were determined according to the National Cancer Institute (NCI), National Institute of Health (NIH) guidelines. In brief, cell suspensions were plated into 96-well plates in 100 μl growth media. Inoculates were allowed a pre-incubation period of 24 hours at 37° C. for stabilization. Cells were treated with 9 doses in triplicates for 72 hours with GSK461364 or GSK1070916. Cell proliferation was measured with CellTiter-Glo® Luminescent Cell Viability Assay (Promega, Madison, Wis.). After subtraction of the baseline (the viability of the cells just before treatment, time 0), the absorbance was plotted. Total growth inhibition doses and 50% growth inhibition doses GI50 were calculated by GraphPad Prism4 software (GraphPad Software, Inc., La Jolla, Calif.).
Human non-malignant and breast cancer cell lines have been established from normal and human breast cancer samples. The cell lines described in this study derived from 49 malignant and 4 non-malignant breast tissues and growth conditions for the cell lines have been reported previously This resource consists of nearly 54 well-characterized breast cell lines with information on genomic and gene expression signatures. The cell incubational condition of the cell lines was shown previously by some of the inventors in Neve, R. M. et al. Cancer Cell 10, 515-527 (2006).
The small-molecule inhibitors for PLK1 (GSK461364), CENPE (GSK923295) and AURKB (GSK1070916) were provided by GlaxoSmithKline, Inc. Stock solutions were made at a concentration of 10 mM in DMSO and stored at −20° C. Compounds were diluted (1:5 serial dilution) to produce test drug concentrations ranging from 0.0768 nM to 30 μM.
Dose-response curves were determined according to the National Cancer Institute NIH guidelines. In brief, cell suspensions were aliquoted into 96-well plates in 100 μl growth media. Inoculates were allowed a preincubation period of 24 hours at 37° C. for stabilization. Cells were treated with 9 doses in triplicate for 72 hours with GSK461364 or GSK1070916. Cell proliferation was measured with CellTiter-Glo® Luminescent Cell Viability Assay (Promega, Madison. WI). After subtraction of the baseline (an estimate of the number of the cells just before treatment, time 0), the absorbance was plotted. Total growth inhibition doses and 50% growth inhibition doses GI50 were calculated by GraphPad Prism4 software (GraphPad Software, Inc., La Jolla, Calif.).
The correlation among the cellular GI50 values of GSK461364, GSK1070916 and GSK92325 was examined by Pearson correlation test. Tumor expression profiles were clustered using the mitotic network genes. Kaplan-Meier survival curves were generated for patients stratified into groups of high (upper tertile) and low (lower tertile) MNAI to evaluate differences in disease-free survival (DFS). […]

[2] = system: sensitive (HCC38) or resistant (MDAMB175) breast cancer cell line; assay: Treatment with mitotic apparatus inhibitors alone or in combination of two; conditions: HCC38 (sensitive) and MDAMB175 (resistant), FIG. 8
Description: Dose response to GSK461364, GSK923295 and GSK1070916 was assayed individually or in combination in different breast cancer subtypes. FIG. 8A is a graph of response to single and combination doses of PLK1 and AURKB inhibitors; FIG. 8B is a graph of response to single and combination doses of PLK1 and CENPE inhibitors; and FIG. 8C is a graph of response to single and combination doses of CENPE and AURKB inhibitors.
In that case, combinations of mitotic apparatus inhibitors would not be expected to show additive or synergistic effects. We tested this by treatment of sensitive and resistant breast cancer cell lines with GSK461364 or GSK1070916 or GSK923295 alone and in combination two of them at different doses. […] That being the case, deployment of drugs targeting other genes in the mitotic apparatus network might contribute to development of a mitotic apparatus therapeutic armamentarium that could effectively counter development of drug resistance and provide durable treatments that will be effective against metastasis. Small molecular inhibitors have already been reported as under development for AURKA (MLN8054), CHEK2 (PD-321852). […] Work developing the mitotic network informs that inhibitors of these genes will be preferentially be effective in tumors with high MNAIs and are thus top candidates for drug development.
This was tested by treating a sensitive (HCC38) or resistant (MDAMB175) breast cancer cell line with GSK461364, GSK1070916 and GSK923295 either alone or in combination.

[3] = system: HJURP protein in MDAMB231; assay: HJURP protein level by Western blot after HJURP shRNA; conditions: stable transfectants in MDAMB231, Western blotting, FIG. 20e
Description: For Western blots, […] of protein extracts per lane were electrophoresed with denaturing sodium doedecyl sulfate (SDS)-polyacrylamide gels (4% to 12%), transferred to PVDF membranes (Millipore, Temecula, Calif., USA), and incubated with HJURP antibody 1:500 (Rabbit, HPA008436, Sigma-Aldrich, St. Louis, Mo., USA) and actin (goat, sc-1616, Santa Cruz Biotechnology, Santa Cruz, Calif., USA) diluted with blocking buffer (927-40000, LI-COR Biosciences, Lincoln, Nebr., USA) The membranes were washed four times with TBST and treated with 1:10,000 dilution of Alex Fluor 680 donkey anti-rabbit (A10043 Invitrogen, Carlsbad, Calif., USA) and IRDye 800CW conjugated donkey anti-goat (611-731-127, Rockland, Gilbertsville, Pa., USA) to detect HJURP and actin respectively. The signals were detected by infrared imaging (LI-COR Biosciences, Lincoln, Nebr., USA). Images were recorded as TIFF files for quantification.
Protein levels were measured by quantifying infrared imaging recorded from labeled antibodies using Scion Image. For each protein, the blots were made for 7 sets of 11 cell lines, each set including the same pair (SKBR3 and MCF12A) to permit intensity normalization across sets. […]
Seventy-two hours after radiation, we measured cell growth and apoptosis using high-content image analysis. […]

[4] = system: MDAMB231 breast cancer cells; assay: Radiation sensitivity, high content imaging of cell number and apoptotic cells; conditions: MDAMB231, 72 hours after X-ray radiation, FIG. 20f
Description: MDAMD231 cells are more sensitive to radiation treatment than T47D cells. […] There are more apoptosis in MDAMB231 cells than T47D cells. […] BT20 cells are more sensitive to radiation treatment than MCF10A cells. […] There are more apoptosis in BT20 cells than MCF10A cells.
High content imaging to assess cell number and apoptotic cells. The effects on cell growth and apoptosis were assessed by a Cellomics high-content image screening system (Cellomics, Thermo Fisher Scientific Inc., Pittsburgh, Pa., USA) after breast cancer cells exposed to a single dose of 0 (sham), 1, 2, 4, 6, 8 or 10 Gy X-ray radiation emitted from an irradiator (model 43855F, Faxitron X-ray Corporation, Lincolnshire, Ill., USA). Live cells in 96 well plates with six replicates from each treatment were stained with 1 μmol/L YO-PRO-1 positive cells.
Seventy-two hours after radiation, we measured cell growth and apoptosis using high-content image analysis. […] Similar results were found in additional cell lines BT20 with high levels of HJURP and MCF10A with low levels of HJURP (FIG. 20c, d). Finally we designed […] (shRNA) against HJURP and generated stable transfectants in a human breast cancer cell line (MDAMB231).

cells with HJURP shRNA = assay: Growth of cells with HJURP shRNA (data not shown)

| Molecule | GI50 values in cell lines with a high MNAI as compared to a low MNAI [1] | effectiveness by breast cancer subtype [1] | response to combination of compounds against two different mitotic apparatus proteins versus alone [2] | down-regulation of HJURP protein levels [3] [%] | sensitivity to radiation [4] | cell growth (cells with HJURP shRNA) |
| --- | --- | --- | --- | --- | --- | --- |
| C[C@@H](Oc1cc(-n2cnc3ccc(CN4CCN(C)CC4)cc32)sc1C(N)=O)c1ccccc1C(F)(F)F [GSK461364] | significantly lower in cell lines with a high MNAI | most effective against basal cell breast cancer subtypes | did not increase the response in either cell type |  |  |  |
| CC(C)Oc1ccc(C(=O)N[C@H](CNC(=O)CN(C)C)Cc2ccc(-c3cn4cccc([C@H](C)O)c4n3)cc2)cc1Cl [GSK923295] | significantly lower in cell lines with a high MNAI | most effective against basal cell breast cancer subtypes | did not increase the response in either cell type |  |  |  |
| CCn1cc(-c2ccnc3[nH]c(-c4cccc(CN(C)C)c4)cc23)c(-c2ccc(NC(=O)N(C)C)cc2)n1 [GSK1070916] | significantly lower in cell lines with a high MNAI | most effective against basal cell breast cancer subtypes | did not increase the response in either cell type |  |  |  |
| B1 |  |  |  | 75 | reduced the sensitivity to radiation | grew slowly |
